Experiments:
NosI = NosI (Streptomyces actuosus, UniProt C6FX48); test: LC-HR-MS detection of MIA-AMP ([…]); assay type: biochemical
NosK = target: T1, NosK (Streptomyces actuosus, UniProt C6FX50); test: thioester hydrolysis, HPLC UV […] nm; assay type: biochemical; settings: CoA thioester hydrolysed
T1 construct: expressed in E. coli, purified
T1 sequence (C6FX50 entry or part of it): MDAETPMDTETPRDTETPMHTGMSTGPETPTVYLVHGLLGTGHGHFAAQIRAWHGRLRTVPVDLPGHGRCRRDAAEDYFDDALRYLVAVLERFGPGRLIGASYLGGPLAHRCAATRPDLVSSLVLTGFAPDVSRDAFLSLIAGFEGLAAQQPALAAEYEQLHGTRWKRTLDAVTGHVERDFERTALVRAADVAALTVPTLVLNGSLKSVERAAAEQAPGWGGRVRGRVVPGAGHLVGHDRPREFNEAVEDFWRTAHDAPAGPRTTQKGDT

Sequence of NosI (C6FX48 entry or part of it): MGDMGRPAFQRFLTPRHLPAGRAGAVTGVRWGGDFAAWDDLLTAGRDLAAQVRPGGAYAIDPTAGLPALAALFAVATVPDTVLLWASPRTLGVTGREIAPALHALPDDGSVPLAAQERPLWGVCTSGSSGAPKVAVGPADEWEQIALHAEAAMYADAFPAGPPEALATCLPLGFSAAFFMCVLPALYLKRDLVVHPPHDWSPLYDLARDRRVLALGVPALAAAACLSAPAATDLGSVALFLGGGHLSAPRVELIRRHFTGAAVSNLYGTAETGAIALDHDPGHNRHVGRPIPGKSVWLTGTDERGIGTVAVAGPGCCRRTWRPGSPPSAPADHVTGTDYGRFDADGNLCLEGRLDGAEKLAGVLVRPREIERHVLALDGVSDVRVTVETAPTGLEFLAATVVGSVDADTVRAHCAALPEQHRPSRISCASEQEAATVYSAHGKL

SMILES | thioester hydrolysis, HPLC UV 300 nm (NosK) | also measured
Nc1ncnc2c1ncn2[C@@H]1O[C@H](COP(=O)(O)OP(=O)(O)OP(=O)(O)O)[C@@H](O)[C@H]1O [ATP] | – | LC-HR-MS detection of MIA-AMP (4) (NosI; MIA co-substrate): LC-HR-MS analysis of the reaction mixture containing NosI, MIA and ATP clearly showed the production
Cc1cccc2[nH]c(C(=O)SCCNC(=O)CCNC(=O)[C@H](O)C(C)(C)COP(=O)(O)OP(=O)(O)OC[C@H]3O[C@@H](n4cnc5c(N)ncnc54)[C@H](O)[C@@H]3OP(=O)(O)O)c(C)c12 [DMIA-CoA] | NosK also hydrolyzes the CoA-bound MIA and DMIA thioesters with comparative efficiencies | –
Cc1c(C(=O)SCCNC(=O)CCNC(=O)[C@H](O)C(C)(C)COP(=O)(O)OP(=O)(O)OC[C@H]2O[C@@H](n3cnc4c(N)ncnc43)[C@H](O)[C@@H]2OP(=O)(O)O)[nH]c2ccccc12 [MIA-CoA] | NosK also hydrolyzes the CoA-bound MIA and DMIA thioesters with comparative efficiencies | –
Cc1c(C(=O)O)[nH]c2ccccc12 [compound 3, 3-methyl-2-indolic acid] | – | LC-HR-MS detection of MIA-AMP (4) (NosI; ATP co-substrate, MIA adenylated, then transferred to pantetheine or holo-NosJ): LC-HR-MS analysis of the reaction mixture containing NosI, MIA and ATP clearly showed the production

— publication PMC5585349, “Biosynthesis of the nosiheptide indole side ring centers on a cryptic carrier protein NosJ” (Nature Communications, 2017)
